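Each compound was tested at five concentrations against cells in 96-well plates for 48 hours. Abbreviation: GI50, concentration required for 50% inhibition of growth. At the TGI there is no net growth.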
Assays:
Test in all cases: NCI-60 cell line screen, 48 h
T-47D breast = system: T-47D breast
K-562 leukemia = system: K-562 leukemia
HCC-2998 colon = system: HCC-2998 colon
BT-549 breast = system: BT-549 breast
NCI/ADR-RES ovarian = system: NCI/ADR-RES ovarian
COLO 205 colon = system: COLO 205 colon
MOLT-4 leukemia = system: MOLT-4 leukemia
MCF7 breast = system: MCF7 breast

SMILES | GI50 (T-47D breast) | TGI (T-47D breast) | GI50 (K-562 leukemia) | TGI (K-562 leukemia) | GI50 (HCC-2998 colon) | TGI (HCC-2998 colon) | GI50 (BT-549 breast) | TGI (BT-549 breast) | GI50 (NCI/ADR-RES ovarian) | TGI (NCI/ADR-RES ovarian) | GI50 (COLO 205 colon) | TGI (COLO 205 colon) | GI50 (MOLT-4 leukemia) | TGI (MOLT-4 leukemia) | GI50 (MCF7 breast) | TGI (MCF7 breast)
CCn1c(-c2nonc2N)nc2c(C#CC(C)(C)O)ncc(OCC3CCNCC3)c21 | > 25 µM | > 25 µM | > 25 µM | > 25 µM | 11.4 µM | > 25 µM | 11 µM | > 25 µM | 12.8 µM | > 25 µM | 4.84 µM | 15.2 µM | 8.3 µM | > 25 µM | 6.19 µM | > 25 µM
COC(=O)[C@@H](C)C[C@H](Cc1ccccc1)NC(=O)c1csc([C@@H](C[C@H](C(C)C)N(C)C(=O)[C@@H](NC(=O)CN(C)C)C2CC2)OC(C)=O)n1 | > 16.5 µM | > 16.5 µM | 0.00299 µM | > 16.5 µM | 0.0573 µM | > 16.5 µM | 0.0127 µM | 0.857 µM | 13.4 µM | > 16.5 µM | 0.0231 µM | 0.499 µM | 0.0501 µM | > 16.5 µM | 0.00258 µM | > 16.5 µM
O=C(O)c1ccccc1/C=C1/Nc2ccccc2C1=O | – | > 100 µM | – | > 100 µM | – | > 100 µM | – | – | – | > 100 µM | – | > 100 µM | – | > 100 µM | – | > 100 µM
O=C(CN1CCN(c2cc3c(cc2F)c(=O)c(C(=O)O)cn3C2CC2)CC1)Nc1ccc(C(=O)/C=C/c2ccccc2)cc1 | 6.66 µM | > 100 µM | 3.07 µM | > 100 µM | 39.6 µM | > 100 µM | 3.55 µM | > 100 µM | 9.75 µM | > 100 µM | 36.3 µM | > 100 µM | 5.13 µM | > 100 µM | 3.52 µM | > 100 µM
CCOC(=O)Nc1ccc2nc(Sc3ccc(Cl)cc3)sc2c1 | 5.93 µM | > 78.7 µM | 0.423 µM | > 100 µM | 15.3 µM | > 71.4 µM | 11.6 µM | 46.3 µM | 1.07 µM | 47.3 µM | 1.45 µM | 19 µM | 4.2 µM | > 87.6 µM | 1.66 µM | > 58.7 µM
O=C(Nc1ccc(Oc2cccc(Cl)c2)c(Cl)c1)c1cccnc1 | 1.91 µM | > 50 µM | 0.255 µM | > 50 µM | 5.62 µM | 15.7 µM | 5.42 µM | 44.3 µM | 1.28 µM | 11.3 µM | 1.39 µM | 8.1 µM | 2.86 µM | > 50 µM | 0.597 µM | > 50 µM
Nc1cc2ccncc2c2ccccc12 | 22.3 µM | > 100 µM | 13.5 µM | 73 µM | 14.2 µM | 40.4 µM | 23.9 µM | > 100 µM | 8.7 µM | > 100 µM | 6.89 µM | 20.8 µM | 5.35 µM | > 100 µM | 19.1 µM | > 100 µM
NS(=O)(=O)c1ccc(N=Nc2cc3ccccc3c(C(=O)O)c2O)cc1 | – | > 100 µM | – | > 100 µM | – | – | – | > 100 µM | – | > 100 µM | – | > 100 µM | – | > 100 µM | – | > 84.7 µM
COC(=O)CCCCCCCCC(=O)c1c(C)[nH]c(/C=C2\N=C(c3ccc[nH]3)C=C2OC)c1C | > 48.1 µM | > 89.3 µM | 1.08 µM | > 34.2 µM | > 26.9 µM | > 100 µM | 3.39 µM | > 100 µM | 24.2 µM | > 100 µM | > 100 µM | > 100 µM | 0.755 µM | > 43.6 µM | 64.4 µM | > 100 µM
CCOC(=O)CCC(NC(=O)c1ccc(Nc2nc3cc(N)cc(N)c3nc2-c2ccccc2)cc1)C(=O)OCC (stereo not given) | 6.7 µM | > 22.1 µM | 42.5 µM | > 100 µM | – | – | 40.1 µM | > 100 µM | 35 µM | > 79.1 µM | > 29.7 µM | > 100 µM | 9.9 µM | > 27.2 µM | 34.8 µM | > 100 µM
CN(C)CC1CCCCCCCCCCC1=O (stereo not given) | > 100 µM | > 100 µM | > 100 µM | > 100 µM | – | > 10 µM | > 100 µM | > 100 µM | > 100 µM | > 100 µM | > 100 µM | > 100 µM | > 100 µM | > 100 µM | > 100 µM | > 100 µM
COc1ccc2c(c1)/C(=N/OC(C)=O)c1c-2c(Nc2ccc(/C(C)=N/OC(C)=O)cc2)nc2ccccc12 | 20.6 µM | 43 µM | 40.4 µM | > 100 µM | 26 µM | 59 µM | > 100 µM | > 100 µM | 33 µM | > 100 µM | > 100 µM | > 100 µM | 26.1 µM | 72.8 µM | 53 µM | > 100 µM
C=C(C)[C@@H]1CC[C@@H]2C(=CC[C@]3(C)C([C@H](C)CC/C=C(/C)C(=O)O)CC[C@@]23C)[C@@]1(C)CCC(=O)O (stereo not given in full) | – | > 100 µM | – | > 100 µM | – | 35.1 µM | – | 51 µM | – | – | – | 39.9 µM | – | – | – | > 100 µM
COc1ccc(OC)c(/C=C/C(=O)c2ccc(SC)cc2)c1 | 18.1 µM | > 100 µM | 2.72 µM | 7.44 µM | 4.81 µM | 17.1 µM | 2.8 µM | 7.01 µM | 3.28 µM | 11.8 µM | 5.57 µM | > 100 µM | 3.26 µM | > 100 µM | 3.98 µM | 12.8 µM
N#CCCCCCn1c2ccccc2c2c3c(c4c5ccccc5[nH]c4c21)C(=O)N(O)C3=O | 0.455 µM | 8.65 µM | 1.07 µM | > 100 µM | 1.82 µM | 6.06 µM | 1.84 µM | 9.53 µM | 5.52 µM | > 100 µM | 1.85 µM | 4.36 µM | 0.37 µM | 4.33 µM | – | –
NC(=S)c1cn(C2OC(CO)C(O)C2O)c2ncnc(N)c12 (stereo not given) | 0.0195 µM | 0.0929 µM | 0.199 µM | – | 0.208 µM | 0.998 µM | 0.149 µM | 1.65 µM | 0.192 µM | 8.24 µM | – | – | 0.0386 µM | 0.261 µM | 0.0673 µM | 0.303 µM

Source: PubChem BioAssay (NCI)
